Experimental findings from patent US9199946B2, “Pyrimidinone carboxamide inhibitors of endothelial lipase” (BRISTOL-MYERS SQUIBB COMPANY, priority 2012, dated 2015) are described below.

Like-named read-outs stand apart in the source and are kept apart here.

For the test, the target named is T1, Endothelial lipase (EL) (Homo sapiens, UniProt Q9Y5X9).
T1 construct: HT-1080 cells, which were transformed by RAGE technology (Athersys) to overexpress endogenous EL; endogenous in cells; conditioned medium used as the enzyme source
T1 sequence (Q9Y5X9 21-500): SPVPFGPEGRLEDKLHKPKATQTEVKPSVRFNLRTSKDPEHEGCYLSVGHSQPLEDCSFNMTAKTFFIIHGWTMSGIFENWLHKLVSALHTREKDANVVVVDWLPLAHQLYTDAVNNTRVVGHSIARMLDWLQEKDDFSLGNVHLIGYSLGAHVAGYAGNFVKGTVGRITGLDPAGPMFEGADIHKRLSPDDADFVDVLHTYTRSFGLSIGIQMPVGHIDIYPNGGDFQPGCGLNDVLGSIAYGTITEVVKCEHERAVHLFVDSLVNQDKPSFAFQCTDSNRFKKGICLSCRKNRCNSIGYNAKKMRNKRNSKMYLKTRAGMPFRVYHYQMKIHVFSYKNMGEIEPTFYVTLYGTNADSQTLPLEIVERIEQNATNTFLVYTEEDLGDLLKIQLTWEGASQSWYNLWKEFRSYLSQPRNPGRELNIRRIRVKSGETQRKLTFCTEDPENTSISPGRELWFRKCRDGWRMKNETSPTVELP
In words: Endothelial lipase (EL) enzymatic assay with fluorescent substrate A10070 in DMPG vesicles. It is filed as biochemical. In short, it runs like this:
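The enzyme source was conditioned medium from HT-1080 cells engineered to overexpress endogenous EL. It was preincubated with compound for 20 min at 37 °C in 50 mM HEPES pH 8.0, 50 mM NaCl, 1 mM CaCl2. Reactions started with DMPG vesicles carrying FRET substrate A10070 (mole fraction 0.05). The rate was taken from the linear slope of fluorescence (ex 488/em 530 nm) over 10 min.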

[1] abbreviates: conditioned media from HT-1080 cells overexpressing endogenous EL, 20 min preincubation at 37° C., read-out: EL IC50.
Setting [2] is: range observed in the EL assay, read-out: EL IC50 values.

A word on the IC50: it is the point on the concentration scale where inhibition reaches its midpoint. As to `O=C(N[C@@H]1CCCc2c(OCc3ccccc3)cccc21)c1[nH]c(=O)[nH]c(=O)c1O` [Example 258, (R)-N-(5-(benzyloxy)-1,2,3,4-tetrahydronaphthalen-1-yl)-5-hydroxy-2,6-dioxo-1,2,3,6-tetrahydropyrimidine-4-carboxamide], the 50% inhibitory concentration (IC50) under setting [1] was determined as 0.01 µM and the concentration for half-maximal inhibition (IC50) under setting [2] is not above 10 µM. For `Nc1c(C(=O)N[C@H]2CC[C@@H](C(=O)N[C@@H]3CCCc4c(OCc5ccccc5)cccc43)C2)[nH]c(=O)[nH]c1=O` [Example 136, 5-amino-N-((1S,3R)-3-((R)-5-(benzyloxy)-1,2,3,4-tetrahydronaphthalen-1-ylcarbamoyl)cyclopentyl)-2,6-dioxo-1,2,3,6-tetrahydropyrimidine-4-carboxamide] the same measures were 0.019 µM and not above 10 µM. Consider `COc1ccc2c(c1)[C@@H](NC(=O)c1[nH]c(=O)[nH]c(=O)c1O)CCC2` [Example 265, (S)-5-hydroxy-N-(7-methoxy-1,2,3,4-tetrahydronaphthalen-1-yl)-2,6-dioxo-1,2,3,6-tetrahydropyrimidine-4-carboxamide], for which the IC50 under setting [2] was not above 10 µM.

With `CC1C(NC(=O)c2[nH]c(=O)[nH]c(=O)c2N)CC2(C(C)C)CC12` (stereo not drawn) [Example 57, 5-amino-N-(1-isopropyl-4-methylbicyclo[3.1.0]hexan-3-yl)2,6-dioxo-1,2,3,6-tetrahydropyrimidine-4-carboxamide], the IC50 reads like this: under setting [1], 4.89 µM; under setting [2], not above 10 µM. For the molecule `O=C(N[C@H]1CC[C@@H](c2ccccc2)CC1)c1[nH]c(=O)[nH]c(=O)c1NCCc1c[nH]cn1` [Example 213, 5-(2-(1H-imidazol-4-yl)ethylamino)-2,6-dioxo-N-(cis-4-phenylcyclohexyl)-1,2,3,6-tetrahydropyrimidine-4-carboxamide], the concentration for half-maximal inhibition (IC50) under setting [2] is not above 10 µM.

Regarding `Nc1c(C(=O)N[C@H]2CC[C@@H](c3ccc(-c4cnn(Cc5ccccc5)c4)cc3)C2)[nH]c(=O)[nH]c1=O` (stereo in doubt) [Example 179, 5-amino-N-((1S,3R)-3-(4-(1-benzyl-1H-pyrazol-4-yl)phenyl)cyclopentyl)-2,6-dioxo-1,2,3,6-tetrahydropyrimidine-4-carboxamide], under setting [2], the IC50 is not above 10 µM. For `Nc1c(C(=O)N[C@@H]2CC[C@@H](c3ccccc3)C2)[nH]c(=O)[nH]c1=O` [Example 77, 5-amino-2,6-dioxo-N-((1R,3R)-3-phenylcyclopentyl)-1,2,3,6-tetrahydropyrimidine-4-carboxamide], the concentration for half-maximal inhibition (IC50) under setting [2] was not above 10 µM.

For `O=C(N[C@@H]1CCCc2cc(OCC(F)(F)F)ccc21)c1[nH]c(=O)[nH]c(=O)c1O` [Example 256, (R)-5-hydroxy-2,6-dioxo-N-(6-(2,2,2-trifluoroethoxy)-1,2,3,4-tetrahydronaphthalen-1-yl)-1,2,3,6-tetrahydropyrimidine-4-carboxamide], the IC50 under setting [2] is not above 10 µM. `Nc1c(C(=O)NC2CCC(NC(=O)Cc3nc4ccc(-c5ccccc5)cc4s3)C2)[nH]c(=O)[nH]c1=O` (stereo not drawn) [Example 135, 5-amino-2,6-dioxo-N-(3-(2-(6-phenylbenzo[d]thiazol-2-yl)acetamido)cyclopentyl)-1,2,3,6-tetrahydropyrimidine-4-carboxamide]: the half-maximal inhibitory concentration (IC50) by setting is: under setting [1], 3.68 µM; under setting [2], not above 10 µM. Consider `O=C(N[C@@H]1CC[C@@H](C(=O)Nc2cnn(Cc3ccccc3)c2)C1)c1[nH]c(=O)[nH]c(=O)c1O` [Example 295, N-((1R,3R)-3-(1-benzyl-1H-pyrazol-4-ylcarbamoyl)cyclopentyl)-5-hydroxy-2,6-dioxo-1,2,3,6-tetrahydropyrimidine-4-carboxamide], for which the concentration for half-maximal inhibition (IC50) under setting [2] is not above 10 µM. Consider `Cn1nccc1-c1ccc([C@@H]2CC[C@H](NC(=O)c3[nH]c(=O)[nH]c(=O)c3N)C2)cc1` [Example 163, 5-amino-N-((1S,3R)-3-(4-(1-methyl-1H-pyrazol-5-yl)phenyl)cyclopentyl)-2,6-dioxo-1,2,3,6-tetrahydropyrimidine-4-carboxamide], for which the IC50 under setting [1] amounted to 2.25 µM and the 50% inhibitory concentration (IC50) under setting [2] was not above 10 µM. With `CCNc1c(C(=O)N[C@H]2CC[C@@H](c3ccccc3)CC2)[nH]c(=O)[nH]c1=O` [Example 229, 5-(ethylamino)-2,6-dioxo-N-(cis-4-phenylcyclohexyl)-1,2,3,6-tetrahydropyrimidine-4-carboxamide], the half-maximal inhibitory concentration (IC50) under setting [2] was not above 10 µM. Regarding `CCOC(=O)[C@H]1CCC[C@H]1NC(=O)c1[nH]c(=O)[nH]c(=O)c1N` [Example 61, (1S,2R)-ethyl 2-(5-amino-2,6-dioxo-1,2,3,6-tetrahydropyrimidine-4-carboxamido) cyclopentanecarboxylate], under setting [2], the IC50 was not above 10 µM. Take `O=C(N[C@H]1CC[C@@H](c2ccccc2)CC1)c1[nH]c(=O)[nH]c(=O)c1NC1CCC1` [Example 233, 5-(cyclobutylamino)-2,6-dioxo-N-(cis-4-phenylcyclohexyl)-1,2,3,6-tetrahydropyrimidine-4-carboxamide]: the half-inhibitory concentration (IC50) under setting [2] was not above 10 µM. `Nc1c(C(=O)NC2CCC(c3cccc(OCc4ccccc4)c3)C2)[nH]c(=O)[nH]c1=O` (stereo not drawn) [Example 158, 5-amino-N-(3-(3-(benzyloxy)phenyl)cyclopentyl)-2,6-dioxo-1,2,3,6-tetrahydropyrimidine-4-carboxamide]: the IC50 under setting [1] turned out to be 0.525 µM. In the case of `Cc1cc(Cl)nc(N2CCCC(NC(=O)c3[nH]c(=O)[nH]c(=O)c3N)C2)n1` (stereo not drawn) [Example 185, 5-amino-N-(1-(4-chloro-6-methylpyrimidin-2-yl)piperidin-3-yl)-2,6-dioxo-1,2,3,6-tetrahydropyrimidine-4-carboxamide], under setting [2], the half-inhibitory concentration (IC50) is not above 10 µM. Regarding `O=C(N[C@H]1CC[C@H](c2ccccc2)C1)c1[nH]c(=O)[nH]c(=O)c1O` [Example 275, 5-hydroxy-2,6-dioxo-N-((1S,3S)-3-phenylcyclopentyl)-1,2,3,6-tetrahydropyrimidine-4-carboxamide], under setting [2], the 50% inhibitory concentration (IC50) is not above 10 µM.

For `N#C[C@]1(c2ccc(Cl)c(Cl)c2)CC[C@@H](NC(=O)c2[nH]c(=O)[nH]c(=O)c2N)CC1` [Example 7, 5-amino-N-(cis-4-cyano-4-(3,4-dichlorophenyl)cyclohexyl)-2,6-dioxo-1,2,3,6-tetrahydropyrimidine-4-carboxamide], under setting [2], the half-maximal inhibitory concentration (IC50) was not above 10 µM. Consider `CCn1c(=O)[nH]c(C(=O)N[C@H]2CC[C@@H](c3ccccc3)CC2)c(O)c1=O` [Example 239, 1-Ethyl-5-hydroxy-2,6-dioxo-N-(cis-4-phenylcyclohexyl)-1,2,3,6-tetrahydropyrimidine-4-carboxamide], for which the 50% inhibitory concentration (IC50) under setting [2] is not above 10 µM. On to `O=C(N[C@H]1CC[C@@H](NC(=O)c2[nH]c(=O)[nH]c(=O)c2O)CC1)OCc1ccccc1` [Example 281, benzyl cis-4-(5-hydroxy-2,6-dioxo-1,2,3,6-tetrahydropyrimidine-4-carboxamido)cyclohexylcarbamate], for which the IC50 by setting is: under setting [1], 0.875 µM; under setting [2], not above 10 µM. As for `Nc1c(C(=O)N[C@@H]2CCc3ccc(OCc4ccccc4)cc32)[nH]c(=O)[nH]c1=O` [Example 91, (R)-5-amino-N-(6-(benzyloxy)-2,3-dihydro-1H-inden-1-yl)-2,6-dioxo-1,2,3,6-tetrahydropyrimidine-4-carboxamide], the half-inhibitory concentration (IC50) under setting [2] was not above 10 µM. Consider `COc1cc(C)c(OC)c2c1CC(NC(=O)c1[nH]c(=O)[nH]c(=O)c1N)CC2` (stereo not drawn) [Example 109, 5-amino-N-(5,8-dimethoxy-6-methyl-1,2,3,4-tetrahydronaphthalen-2-yl)-2,6-dioxo-1,2,3,6-tetrahydropyrimidine-4-carboxamide], for which the concentration for half-maximal inhibition (IC50) under setting [2] was not above 10 µM. With `Nc1c(C(=O)N[C@@H]2CCCc3cc(OCC(F)(F)F)ccc32)[nH]c(=O)[nH]c1=O` [Example 33, (R)-5-amino-2,6-dioxo-N-(6-(2,2,2-trifluoroethoxy)-1,2,3,4-tetrahydronaphthalen-1-yl)-1,2,3,6-tetrahydropyrimidine-4-carboxamide], the IC50 under setting [2] is not above 10 µM. `Nc1c(C(=O)N[C@@H]2CC[C@H](c3ccccc3)C2)[nH]c(=O)[nH]c1=O` [Example 75, 5-amino-2,6-dioxo-N-((1R,3S)-3-phenylcyclopentyl)-1,2,3,6-tetrahydropyrimidine-4-carboxamide]: the IC50 under setting [2] was not above 10 µM. `COc1cccc2c1CCC[C@H]2NC(=O)c1[nH]c(=O)[nH]c(=O)c1O` [Example 261, (R)-5-hydroxy-N-(5-methoxy-1,2,3,4-tetrahydronaphthalen-1-yl)-2,6-dioxo-1,2,3,6-tetrahydropyrimidine-4-carboxamide]: the 50% inhibitory concentration (IC50) under setting [2] is not above 10 µM. Regarding `Nc1c(C(=O)N[C@H]2CCc3ccc(Br)cc32)[nH]c(=O)[nH]c1=O` [Example 55, (S)-5-amino-N-(6-bromo-2,3-dihydro-1H-inden-1-yl)-2,6-dioxo-1,2,3,6-tetrahydropyrimidine-4-carboxamide], under setting [2], the IC50 was not above 10 µM.

For the molecule `Cc1ccc(-c2ccc([C@@H]3CC[C@H](NC(=O)c4[nH]c(=O)[nH]c(=O)c4N)C3)cc2)cc1` [Example 169, 5-amino-N-((1S,3R)-3-(4′-methylbiphenyl-4-yl)cyclopentyl)-2,6-dioxo-1,2,3,6-tetrahydropyrimidine-4-carboxamide], the half-inhibitory concentration (IC50) under setting [2] is not above 10 µM.
